In PMC6832920, “Synthesis, Docking Studies, and In Vitro Evaluation of Some Novel Thienopyridines and Fused Thienopyridine–Quinolines as Antibacterial Agents and DNA Gyrase Inhibitors” (Molecules, 2019):
≈ marks a conversion by molar mass, not a printed value.

How the values were obtained:
[1] = system: Pseudomonas aeruginosa 27853; experiment: MIC determination by dilution procedure; format: cell-based; conditions: Pseudomonas aeruginosa, 27853, P. aeruginosa 27853; dilutions 125-1.95 μg/mL; read-out: minimum inhibitory concentration (MIC)
[2] = system: Pseudomonas aeruginosa 27853; experiment: agar disc-diffusion antibacterial assay; format: cell-based; conditions: P. aeruginosa 27853, disc loaded with 100 μg, 37 °C, 24 h, read-out: diameter of inhibition zone
Description: (§1) The clinical control strains of Gram-negative bacteria (Escherichia coli 8739, Salmonella typhimurium 14028, Pseudomonas aeruginosa 27853) and Gram-positive bacteria (Bacillus subtilis 6633, Bacillus cereus 33018, Staphylococcus aureus 25923), were obtained from microbial inoculums by subculturing microorganisms into nutrient broth (NB) at 37 °C for 18 h, and were adjusted to 0.125 A° at 625 nm (equivalent to a McFarland 0.5) in 2-fold NB. A 100 μL measure of NB containing each test microorganism was added to the sterile Petri dishes. Antibacterial testing was carried out on all compounds (3a,b–14) using the agar disc-diffusion method [40]. Sterile nutrients were inoculated with 100 μL cell suspension of the chosen test microorganism and poured into Petri dishes (20 cm diameter). Filter paper discs (Whatman, No.3, diameter 5 mm) were loaded with 10 μL containing 100 μg of the tested compounds, as well as the standard drug. Composite compound disks were placed on the surface of inoculated agar plates and kept at low temperatures before incubation in order to support the swelling and diffusion of the microbial growth. The plates were incubated at 37 °C in the incubator. Experiments were performed in duplicate and the diameters of inhibition zones were measured after 24 h. A diameter of inhibition zone (DIZ) assay was performed to evaluate the antimicrobial potential of the compounds against the tested organisms compared with reference antibiotics.

Bacillus cereus 33018 [3] = experiment: MIC determination by dilution procedure; format: cell-based; conditions: B. cereus 33018, dilutions 125-1.95 μg/mL, read-out: minimum inhibitory concentration (MIC)
Description: (§2) A 100 μL measure of NB containing each test microorganism was added to the sterile Petri dishes. Antibacterial testing was carried out on all compounds (3a,b–14) using the agar disc-diffusion method [40]. Sterile nutrients were inoculated with 100 μL cell suspension of the chosen test microorganism and poured into Petri dishes (20 cm diameter). Filter paper discs (Whatman, No.3, diameter 5 mm) were loaded with 10 μL containing 100 μg of the tested compounds, as well as the standard drug. Composite compound disks were placed on the surface of inoculated agar plates and kept at low temperatures before incubation in order to support the swelling and diffusion of the microbial growth. The plates were incubated at 37 °C in the incubator. Experiments were performed in duplicate and the diameters of inhibition zones were measured after 24 h. A diameter of inhibition zone (DIZ) assay was performed to evaluate the antimicrobial potential of the compounds against the tested organisms compared with reference antibiotics.

Bacillus cereus 33018 [4] = experiment: agar disc-diffusion antibacterial assay; format: cell-based; conditions: B. cereus 33018, disc loaded with 100 μg, 37 °C, 24 h, read-out: diameter of inhibition zone
Description: as §2

[5] = system: Salmonella typhimurium 14028; experiment: MIC determination by dilution procedure; format: cell-based; conditions: Salmonella enterica; S. typhimurium 14028; dilutions 125-1.95 μg/mL; read-out: minimum inhibitory concentration (MIC)
Description: (§3) The clinical control strains of Gram-negative bacteria (Escherichia coli 8739, Salmonella typhimurium 14028, Pseudomonas aeruginosa 27853) and Gram-positive bacteria (Bacillus subtilis 6633, Bacillus cereus 33018, Staphylococcus aureus 25923), were obtained from microbial inoculums by subculturing microorganisms into nutrient broth (NB) at 37 °C for 18 h, and were adjusted to 0.125 A° at 625 nm (equivalent to a McFarland 0.5) in 2-fold NB. A 100 μL measure of NB containing each test microorganism was added to the sterile Petri dishes. Antibacterial testing was carried out on all compounds (3a,b–14) using the agar disc-diffusion method [40]. Sterile nutrients were inoculated with 100 μL cell suspension of the chosen test microorganism and poured into Petri dishes (20 cm diameter). Filter paper discs (Whatman, No.3, diameter 5 mm) were loaded with 10 μL containing 100 μg of the tested compounds, as well as the standard drug. Composite compound disks were placed on the surface of inoculated agar plates and kept at low temperatures before incubation in order to support the swelling and diffusion of the microbial growth. The plates were incubated at 37 °C in the incubator. Experiments were performed in duplicate and the diameters of inhibition zones were measured after 24 h.

[6] = system: methicillin-resistant Staphylococcus aureus (MRSA); experiment: inhibition zones against MRSA (disc diffusion); format: cell-based
Escherichia coli 8739 [7] = experiment: MIC determination by dilution procedure; format: cell-based; conditions: E. coli 8739, dilutions 125-1.95 μg/mL, read-out: minimum inhibitory concentration (MIC)
Bacillus subtilis 6633 [8] = experiment: agar disc-diffusion antibacterial assay; format: cell-based; conditions: B. subtilis 6633, disc loaded with 100 μg, 37 °C, 24 h, read-out: diameter of inhibition zone
Description: as §2

[9] = system: Salmonella typhimurium 14028; experiment: agar disc-diffusion antibacterial assay; format: cell-based; conditions: Salmonella enterica; S. typhimurium 14028; disc loaded with 100 μg; 37 °C, 24 h; read-out: diameter of inhibition zone
Description: as §3

[10] = system: Staphylococcus aureus 25923; experiment: agar disc-diffusion antibacterial assay; format: cell-based; conditions: S. aureus 25923, disc loaded with 100 μg, 37 °C, 24 h, read-out: diameter of inhibition zone
Description: as §1

DNA gyrase from E. coli = biological target: T1, DNA gyrase from E. coli (Escherichia coli, UniProt P0AES6); experiment: Escherichia coli DNA gyrase supercoiling inhibition assay; format: biochemical
T1 construct: purchased TopoGEN

[11] = system: Staphylococcus aureus 25923; experiment: MIC determination by dilution procedure; format: cell-based; conditions: Staphylococcus aureus, 25923, S. aureus 25923; dilutions 125-1.95 μg/mL; read-out: minimum inhibitory concentration (MIC)
Description: as §2

Bacillus subtilis 6633 [12] = experiment: MIC determination by dilution procedure; format: cell-based; conditions: B. subtilis 6633, dilutions 125-1.95 μg/mL, read-out: minimum inhibitory concentration (MIC)
Description: as §2

Escherichia coli 8739 [13] = experiment: agar disc-diffusion antibacterial assay; format: cell-based; conditions: E. coli 8739, disc loaded with 100 μg, 37 °C, 24 h, read-out: diameter of inhibition zone
Description: as §1

Row | SMILES | MIC [1] | zone of inhibition at 100 µg/disc [2] | MIC (Bacillus cereus 33018 [3]) | zone of inhibition at 100 µg/disc (Bacillus cereus 33018 [4]) | MIC [5] | zone of inhibition against MRSA [6] | MIC (Escherichia coli 8739 [7]) | zone of inhibition at 100 µg/disc (Bacillus subtilis 6633 [8]) | zone of inhibition at 100 µg/disc [9] | zone of inhibition at 100 µg/disc [10] | IC50 (DNA gyrase from E. coli) | MIC [11] | MIC (Bacillus subtilis 6633 [12]) | zone of inhibition at 100 µg/disc (Escherichia coli 8739 [13]) | melting point
1 | COc1ccc(-c2cc(-c3ccco3)nc3sc(C(N)=O)c(N=C4CCCCC4)c23)cc1 [Compound 4a, 3-(Cyclohexylideneamino)-6-(furan-2-yl)-4-(4-methoxyphenyl)thieno[2,3-b]pyridine-2-carboxamide] | 31.2 µg/mL (≈ 70.1 µM) | 13 mm | 15.6 µg/mL (≈ 35.1 µM) | 16 mm | 15.6 µg/mL (≈ 35.1 µM) | 13 mm | 15.6 µg/mL (≈ 35.1 µM) | 15 mm | 15 mm | 18 mm | 3.69 ± 0.15 µM | 15.6 µg/mL (≈ 35.1 µM) | 15.6 µg/mL (≈ 35.1 µM) | 18 mm | 
2 | COc1ccc(-c2cc(-c3ccco3)nc3sc4c(NC(=O)CNN)c5c(nc4c23)CCCC5)cc1 [Compound 7a, N-(2-(furan-2-yl)-4-(4-methoxyphenyl)-6,7,8,9-tetrahydropyrido[3′,2′:4,5]thieno[3,2-b]quinolin-10-yl)-2-hydrazinylacetamide] | 31.2 µg/mL (≈ 62.6 µM) | 11 mm | 15.6 µg/mL (≈ 31.3 µM) | 15 mm | 31.2 µg/mL (≈ 62.6 µM) | 18 mm | 15.6 µg/mL (≈ 31.3 µM) | 17 mm | 11 mm | 19 mm | 8.66 ± 0.61 µM | 15.6 µg/mL (≈ 31.3 µM) | 15.6 µg/mL (≈ 31.3 µM) | 16 mm | 278 °C
3 | COc1ccc(-c2cc(-c3ccco3)nc3sc4c(NC(=O)CN5CCN(C)CC5)c5c(nc4c23)CCCC5)cc1 [Compound 9b, N-(2-(furan-2-yl)-4-(4-methoxyphenyl)-6,7,8,9-tetrahydropyrido[3′,2′:4,5]thieno[3,2-b]quinolin-10-yl)-2-(4-methylpiperazin-1-yl)acetamide] | 15.6 µg/mL (≈ 27.5 µM) | 18 mm | 15.6 µg/mL (≈ 27.5 µM) | 18 mm | 15.6 µg/mL (≈ 27.5 µM) | 14 mm | 15.6 µg/mL (≈ 27.5 µM) | 15 mm | 19 mm | 16 mm | 5.78 ± 0.46 µM | 15.6 µg/mL (≈ 27.5 µM) | 15.6 µg/mL (≈ 27.5 µM) | 20 mm | 158 to 159 °C
4 | COc1ccc(-c2cc(-c3ccco3)nc3sc4c(N=Cc5cccs5)c5c(nc4c23)CCCC5)cc1 [Compound 12b, N-(2-(furan-2-yl)-4-(4-methoxyphenyl)-6,7,8,9-tetrahydropyrido[3′,2′:4,5]thieno[3,2-b]quinolin-10-yl)-1-(thiophen-2-yl)methanimine] | 15.6 µg/mL (≈ 30 µM) | 16 mm | 15.6 µg/mL (≈ 30 µM) | 15 mm | 15.6 µg/mL (≈ 30 µM) | 15 mm | 15.6 µg/mL (≈ 30 µM) | 15 mm | 16 mm | 16 mm | 4.6 ± 0.28 µM | 15.6 µg/mL (≈ 30 µM) | 15.6 µg/mL (≈ 30 µM) | 18 mm | 114 °C
5 | CNC(C)C1CCC(N)C(OC2C(N)CC(N)C(OC3OCC(C)(O)C(NC)C3O)C2O)O1 (stereo not drawn) [Gentamicin, gentamicin, reference compound] |  |  |  |  |  | 15 mm |  |  |  |  |  |  |  |  | 
